Results published in patent US20220048908A1, “COMPOSITIONS AND METHODS FOR MODULATING HAIR GROWTH” (The Regents of the University of California, priority 2019, published 2022).
Entries after “also recorded” stand apart in the source; their conditions may differ.

What was measured:
[1] = tested on: hair cycle; assay: Topical treatment of mice in telogen with UK-5099: hair cycle / HFSC activation; format: in vivo
Description: (§1) FIG. 7A: Animals treated topically with UK-5099 (20 μM) show pigmentation and hair growth, indicative of entry into anagen, after 8 days of treatment. Full anagen, indicated by full coat of hair, is achieved after 14 days of treatment. […] Images shown are representative of at least 14 mice from 7 independent experiments. Scale bars indicate 100 micrometers. FIG. 7B: Graph showing time to observed phenotype in vehicle versus UK-5099 treated mice. n=6 mice per condition. Shown as mean±SEM. […] Ldh activity is indicated by purple stain; pink is nuclear fast red counterstain. Scale bars indicate 50 micrometers. FIG. 7D: Metabolomic analysis of Lactate on HFSCs isolated from UK-5099 treated skin for 48 hours; Each bar represents the average signal for each condition where n=9 mice pooled from 3 independent experiments. Shown as mean±SEM. Paired t-test was performed, p<0.05.
(§2) Quantification of the hair cycle across at least 6 pairs of animals (vehicle vs UK-5099) indicated a strong acceleration of the hair cycle, in as few as 6-9 days (FIG. 7B).

[2] = tested on: Ldh activity in HFSCs and the interfollicular epidermis; assay: Ldh enzyme activity assay in the epidermis of topically treated animals; format: in vivo, mice; conditions: topical, 48 hours during telogen
Description: as §1
To determine whether Ldha expression patterns correlate with activity of the Ldh enzyme, a colorimetric-based enzymatic assay was used to assess Ldh activity capacity in situ. Typically performed on protein lysates or aliquots with a plate reader, the Ldh activity assay was adapted to work in situ on frozen tissue sections. […]
as §2

[3] = tested on: lactate in sorted HFSCs; assay: Metabolomic analysis of lactate on HFSCs isolated from treated skin; format: in vivo, mice; conditions: topical application, skin treated for 48 hours
Description: as §1, §2

[4] = topical treatment of animals in telogen (day 50)

Question: How did the “effect on the hair cycle” value [1, 4] turn out when N#C/C(=C\c1cn(-c2ccccc2)c2ccccc12)C(=O)O [UK-5099, (E)-2-Cyano-3-(1-phenyl-1H-indol-3-yl)acrylic acid] was run?
Answer: robust acceleration of the hair cycle

Question: And the “effect on the interfollicular epidermis (proliferation)” value [1, 4]?
Answer: minor hyperproliferation of the interfollicular epidermis

Question: What about the “time to full anagen, indicated by full coat of hair” value ([1]; topical, 20 μM) of the same molecule?
Answer: 14 days

Question: And the “skin pathology (entry into anagen)” value ([1]; topical, 20 μM, at 8 weeks, vehicle remained in telogen)?
Answer: enter an accelerated anagen

Question: And the “time to pigmentation and hair growth, indicative of entry into anagen” value ([1]; topical, 20 μM, vehicle shows none even after 12 days)?
Answer: 8 days

Question: And the “time in which acceleration of the hair cycle is seen” value ([1]; topical, at least 6 pairs of animals, vehicle vs UK-5099)?
Answer: 6 to 9 days

Question: What about the “Ldh activity in HFSCs and interfollicular epidermis” value [2] of the same molecule?
Answer: Ldh enzyme activity also seen in interfollicular epidermis; also recorded: increased Ldh activity

Question: What about the “total levels of lactate in sorted HFSCs” value [3] of the same molecule?
Answer: increases total levels of lactate
